The source of these data is US10761088B2, “Method for identifying histone tail proteolysis” (University of Southern California, priority 2016, dated 2020).

“Also recorded” adds a separate entry of the source.

In series [1] the test system is H3NT proteolysis in OCP-induced cells. In words: H3NT cleavage in OCP-induced cells (Western blot of chromatin with H3CT antibody). It is filed as cell-based. As to conditions: RANKL-induced primary mouse OCP cells; shRNA transduction or 10 nM MMP-9-INI or 1.6 μM C646 for 3 days prior to differentiation; versus control shRNA or DMSO. (A western blot detects proteins with antibodies after separation by electrophoresis.)

Series [2] deals with T1, H3NT protease activity (MMP-9) of purified fractions #3-5 from 3-day OCP-induced cells (Mus musculus, UniProt P41245).
T1 construct: both the pro- and active-forms of MMP-9 were detected in the nuclear compartment of 1-day OCP-induced cells; endogenous in cells; host or cells: primary mouse (C57BL/6) bone-marrow-derived OCP cells induced with RANKL; nuclear extracts / lysates
T1 sequence (P41245 108-730): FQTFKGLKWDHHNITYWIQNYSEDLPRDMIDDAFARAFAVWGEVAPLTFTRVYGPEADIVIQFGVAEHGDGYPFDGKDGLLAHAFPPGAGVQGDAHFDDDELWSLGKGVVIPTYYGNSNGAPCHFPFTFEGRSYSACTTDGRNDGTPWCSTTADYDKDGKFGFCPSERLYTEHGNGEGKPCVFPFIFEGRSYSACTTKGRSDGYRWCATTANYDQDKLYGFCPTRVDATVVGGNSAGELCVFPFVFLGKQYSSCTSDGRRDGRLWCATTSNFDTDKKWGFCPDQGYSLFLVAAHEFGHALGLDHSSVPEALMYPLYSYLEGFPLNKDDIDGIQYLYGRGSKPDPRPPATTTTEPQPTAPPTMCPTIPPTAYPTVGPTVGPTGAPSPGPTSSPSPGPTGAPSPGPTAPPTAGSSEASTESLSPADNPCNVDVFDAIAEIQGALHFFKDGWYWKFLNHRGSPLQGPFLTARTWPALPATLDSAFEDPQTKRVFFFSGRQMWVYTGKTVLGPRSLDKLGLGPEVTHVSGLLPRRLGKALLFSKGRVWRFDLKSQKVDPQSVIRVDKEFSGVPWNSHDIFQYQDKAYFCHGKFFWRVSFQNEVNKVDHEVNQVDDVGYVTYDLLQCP
In words: In vitro H3NT cleavage assay of purified nuclear fractions #3-5 with protease inhibitors (rH3 substrate, Western blot with H3CT antibody). The class given is biochemical. The settings on record: fractions incubated with protease inhibitors, Western blot with H3CT antibody (FIG. 1D, 1E). From the text:
(§1) To identify the protease responsible for H3NT cleavage observed in preosteoclasts, nuclear extracts from 3-day OCP-induced cells were fractionated by a series of chromatography steps (FIG. 1C). An in vitro H3NT cleavage assay was developed using a recombinant H3 (rH3) substrate and Western blot analysis with the H3CT antibody to track and isolate nuclear fractions containing H3NT protease activity. […] These fractions were combined and fractionated on a Q-sepharose column where, again, H3NT protease activity was largely restricted to two sequential fractions, BR100 and BR200. The fractions were combined for glycerol gradient sedimentation resulting in the final purification of fractions (#3-5) containing H3NT protease activity. […]
(§2) His-tagged proteins were generated in Rosetta 2 (DE3) pLysS E. coli (Novagen) and purified as previously described (Kim et al. 2008). […] Peptides were incubated with rMMP-9 at seven different concentrations (0, 25, 50, 100, 150, 200, and 250 µM) in cleavage buffer, the reactions stopped by adding 20 mM o-phenanthroline (Sigma) and peptide hydrolysis was measured by adding 5 mM fluorescamine followed by detection at λex 365 nm and λem 450 nm using a Plate Chameleon spectrofluorometer (Hidex). Kinetic parameters were determined by Michaelis-Menten analysis. […]

Series [3] has as its system Nfatc1, Lif and Xpr1 expression. Description: RT-qPCR of osteoclastogenic genes Nfatc1, Lif and Xpr1 in 3-day OCP cells. The class given is cell-based, mouse. The settings on record: 3-day OCP-induced cells, with RANKL (FIG. 7B, 14). From the text: FIGS. 7A-7D. […] Distribution of H3NT-cleaved genes dependent on MMP-9 for activation (light) or repression (black) in 3-day OCP-induced cells (right). […] Enrichments were plotted relative to non-induced control shRNA OCP cells (first column) (y-axis). Star indicates H3NT cleavage.
FIG. 14. […] RT-qPCR was used to quantitatively measure fold expression changes (y-axis) of the osteoclastogenic genes Nfatc1, Lif and Xpr1 relative to non-induced control after normalization to β-actin expression.
To broadly examine the association between H3NT cleavage and gene expression, the RNA-Seq data was analyzed for the 1,233 H3NT-cleaved genes identified in control and MMP-9 depleted 3-day OCP-induced cells. […] To further investigate the MMP-9-dependent activation of these genes during osteoclastogenesis, RT-qPCR was performed in OCP cells transduced with a control or MMP-9-specific shRNA, or treated with DMSO control or a selective MMP-9 inhibitor, and cultured with or without RANKL for 3 days. […]
qPCR was performed using PerfeCta® SYBR Green FastMix (Quanta BIOSCIENCES) and an iCycler IQ5 (Bio-Rad). […] Specificity of amplification was determined by melting curve analysis and all samples were run in triplicate with results averaged.
(In general: Real-time PCR tracks product formation cycle by cycle.)

A further series concerns recombinant H3 (rH3). Description: In vitro H3NT cleavage assay using recombinant proteases. The class given is biochemical. As to conditions: recombinant MMP-9, USP14, USP39 and DIM1 tested (FIG. 1G).
From the text: as §1, §2

On to `CC1=NN(c2ccc(C(=O)O)cc2)C(=O)/C1=C\c1ccc(-c2cc(C)c(C)cc2[N+](=O)[O-])o1` [selective CBP/p300 inhibitor, C646], for which the “H3NT proteolysis / cleavage in OCP-induced cells” value in series [1] is “sustained impairment of H3NT proteolysis”.

In the case of `CCN(CC)Cc1cc(C)c(N(Cc2ccccc2)S(=O)(=O)c2ccc(OC)cc2)c(C(=O)NO)c1` [selective MMP-9 inhibitor], in series [2], the “H3NT protease activity of purified fractions #3-5” value was “abolished H3NT proteolysis”. Besides, the “H3NT proteolysis / cleavage in OCP-induced cells” value in series [1] is “continuous impairment of H3NT cleavage; also recorded: Ablation of H3NT cleavage”. Also, the “Nfatc1, Lif and Xpr1 activation (fold expression, normalized to β-actin)” value in series [3] was “significantly impaired Nfatc1, Lif and Xpr1 activation”.

With “rMMP-9: His-tagged recombinant MMP-9 (aa1115-730 as printed) purified from E. coli inclusion bodies and refolded”, in the series on recombinant H3 (rH3), the “H3NT protease activity of recombinant proteases” value was “possessed H3NT protease activity”.
